Our source for the thermal conductivity values is the NIST ThermoML archive (doi:10.1016/j.tca.2016.09.002).

The conditions of series [1]: 101.33 kPa, Liquid, Hot wire method.
The nature of series [2]: wn = mass fraction of the nth substance listed. The note with it: 303.15 K, 100.7 kPa, Liquid, Hot wire method.

± gives the expanded uncertainty stated by the source.

With `OCCO` [1,2-ethanediol], the thermal conductivity in series [1] (303.15 K) is given as 0.254 ± 0.003 W/m/K; in series [1] (313.15 K), 0.256 ± 0.004 W/m/K; in series [1] (323.15 K), 0.26 ± 0.003 W/m/K.

Turning to `C[C@H](CCC(=O)[O-])[C@H]1CC[C@H]2[C@@H]3CC[C@@H]4C[C@H](O)CC[C@]4(C)[C@H]3C[C@H](O)[C@]12C.[Na+]` [sodium deoxycholate] + O, the thermal conductivity in series [2] (w1 = 0.0085) amounted to 0.617 ± 0.006 W/m/K.

Take `C[C@H](CCC(=O)[O-])[C@H]1CC[C@H]2[C@@H]3CC[C@@H]4C[C@H](O)CC[C@]4(C)[C@H]3C[C@H](O)[C@]12C.[Na+]` [sodium deoxycholate] + OCCO: the thermal conductivity in series [2] (w1 = 0.00761) came to 0.259 ± 0.003 W/m/K.

In the case of `O` [water], the thermal conductivity in series [1] (303.15 K) came to 0.607 ± 0.015 W/m/K; in series [1] (313.15 K), 0.621 ± 0.016 W/m/K; in series [1] (323.15 K), 0.631 ± 0.016 W/m/K.
